Literature values, collected in article PMC12007609 (International Journal of Nanomedicine, 2025).

Test system: GLUT2
Settings: GLUT2 transport

`O=C(CO)[C@@H](O)[C@H](O)[C@H](O)CO` [fructose] and `O=C[C@H](O)[C@@H](O)[C@@H](O)[C@H](O)CO` [galactose] are within 1.5-fold of each other in Km: roughly 76 mM for the first, roughly 92 mM for the second.

In the case of `OC[C@H]1OC(O)[C@H](O)[C@@H](O)[C@@H]1O` (stereo partly drawn) [glucose], the Km is given as roughly 17 mM.
